Results published in US7319094B2, “Increased and sustained in vivo gene expression using a nucleic acid, histone and amphipathic compound composition” (Rhode Island Hospital, priority 2001, dated 2008).

Key:
Assay type in all cases: cell-based, human
p25 = p25 expression, Western blot / MICE assay; conditions: PNET2 cells induced to express AD7c-NTP
Text: Standard Western blot assays wew used to measure cellular levels of p53, Bcl-2, p21/Waf1, phospho-tau, tau, c-fos, NTP, and activated (phosphorylated) forms of Erk mitogen activated protein (MAP) kinase, amino-terminal c-jun-activated kinase (pJNK), and p38/HOG1. Immunoprecipitation followed by Western blot analysis was used to measure p85 subunit associated with IRS1. For Western blot analysis of p53 Bcl-2, phospho-tau, tau, c-fos, and NTP, the cells were lysed in ice cold radioimmunoprecipitation assay (RIPA) buffer supplemented with protease and phosphatase inhibitors. […] Protein concentrations were measured using the BCA assay (Pierce, Rockford, Ill.). Samples containing 60 μg of protein were fractionated by sodium dodecyl sulfate polyacrylamide gel electrophoresis (SDS-PAGE), then transferred to PVDF membranes, and analyzed by Western immunoblotting. Immunoreactivity was detected with horseradish peroxidase conjugated secondary IgG and PicoWest enhanced chemiluminescence reagents (Pierce Chemical Company, Rockford, Ill.). CAT activity was measured using known methods.
The MICE assay is known in the art (e.g., as described by de la Monte et al., 1999, Biotechniques 26:107301076). […] Immunoreactivity was detected using horseradish peroxidase conjugated secondary antibody (Pierce, Rockford, Ill.) and the TMB soluble peroxidase substrate (Pierce, Rockford, Ill.). […]

[1] = tested on: nitric oxide synthase-3 (NOS-3); assay: NOS-3 expression, Western blot; conditions: PNET2 cells induced to express AD7c-NTP; relative to PDGF-stimulated cultures
Text: Standard Western blot assays wew used to measure cellular levels of p53, Bcl-2, p21/Waf1, phospho-tau, tau, c-fos, NTP, and activated (phosphorylated) forms of Erk mitogen activated protein (MAP) kinase, amino-terminal c-jun-activated kinase (pJNK), and p38/HOG1. Immunoprecipitation followed by Western blot analysis was used to measure p85 subunit associated with IRS1. For Western blot analysis of p53 Bcl-2, phospho-tau, tau, c-fos, and NTP, the cells were lysed in ice cold radioimmunoprecipitation assay (RIPA) buffer supplemented with protease and phosphatase inhibitors. For the immunoprecipitation studies, Western blot analysis of phospho-Erk, pJNK, and p38, and the PI3 kinase assays, the cells were harvested in Triton lysis buffer supplemented with protease and phosphatase inhibitors. Protein concentrations were measured using the BCA assay (Pierce, Rockford, Ill.). Samples containing 60 μg of protein were fractionated by sodium dodecyl sulfate polyacrylamide gel electrophoresis (SDS-PAGE), then transferred to PVDF membranes, and analyzed by Western immunoblotting. Immunoreactivity was detected with horseradish peroxidase conjugated secondary IgG and PicoWest enhanced chemiluminescence reagents (Pierce Chemical Company, Rockford, Ill.). CAT activity was measured using known methods. […]

[2] = tested on: IRS-1-associated PI3 kinase; assay: IRS-1-associated PI3 kinase activity; conditions: 3 mM IPTG-induced cultures, 30 minutes of stimulation
Method: The cells were harvested in Triton lysis buffer supplemented with protease and phosphatase inhibitors. Total PI3K was immunoprecipitated from 500 μg protein in cell lysates using rabbit polyclonal antibodies to the p85 subunit of PI3K and Protein A sepharose. The immunoprecipitants were incubated for 5 minutes at room temperature with 10 μg of sonicated phosphatidylinositol in HEPES buffer (200 mM HEPES, 4 mM EGTA, 4 mM sodium phosphate, pH 7.0). Reactions were initiated by the addition of 5 μCi [α^32p] ATP, 15 mM MgCl2, 150 mM ATP, 1.5 mM Tris-HCl, pH 7.4, and 15 mM NaCl. […] Phosphorylated lipids were analyzed by thin layer chromatography using gel plates pre-coated with 1% oxalate (Merck, White House Station, N.J.). PI3K activity was measured with a phosphorimager.
PI3 kinase is an important mediator of neuronal survival. […] Since insulin and IGF-1 can activate PI3 kinase through the insulin-receptor substrate-1 (IRS-1) or through IRS-1-independent pathways, both IRS1-associated PI3 kinase and total PI3 kinase activities were measured. […] Levels of PI3 kinase activity were measured in anti-phospho-tyrosine (PY) immunoprecipitates. […] Similarly, PI3 kinase activity was readily detected in the PY immunoprecipitates prepared with cells stimulated with insulin or PDGF.

[3] = tested on: PNET2 cells induced to express AD7c-NTP; assay: Cell morphology by phase contrast microscopy; conditions: IPTG-induced AD7c-NTP; insulin 50 nM, IGF-1 5 ng/ml, NGF 2.5 ng/ml, PDGF 5 ng/ml; 24-48 hours
Method: To examine the effects of different growth factors on AD7c-NTP expression (and over-expression), the cells were serum-starved for 16 hours, after which IPTG (1-5 mM) was added to the medium. Four hours later, the cells were stimulated with insulin (50 nM), IGF-1 (5 ng/ml), NGF ([…]), or platelet-derived growth factor (PDGF; 5 ng/ml) for 24-72 hours. The cells were analyzed for morphological changes, viability, AD7c-NTP immunoreactivity, and expression of pro-apoptosis genes, survival genes, and phospho-tau.
Cells were serum-starved for 24 hours. However, since several hours of IPTG stimulation were required to induce AD7c-NTP gene expression or CAT activity, IPTG (3 mM) was added to the cultures after 16 hours of serum-starvation, i.e. 8 hours prior to growth factor stimulation. The cells were stimulated with insulin (50 nM), IGF-1 (5 ng/ml), NGF (2.5 ng/ml), or PDGF (5 ng/ml) and examined by phase contrast microscopy 24-48 hours later. PNET2 cells could be maintained in serum-free medium for 5 to 7 days with insulin, IGF-1, NGF, or PDGF as the only growth stimulus. In addition, each of these growth factors supports DNA synthesis and promotes modest outgrowth of multipolar neurites in PNET2 cells.

insulin: Human insulin purchased from Novagen
p25 level (p25): significantly increased levels | NOS-3 level [1]: increased levels | IRS-1-associated PI3 kinase activity [2]: sharply increased | cell morphology [3]: neurite retraction, cell rounding and increased cell death
